“Also recorded” adds a separate entry of the source.
How the values were obtained:
[1] = clomipramine 50 mg; sertraline 50 mg to 200 mg per day; fluoxetine 40 mg and another report; cited from earlier work
[2] = tested on: Patients with premature ejaculation of 60 seconds or less; assay: Clinical study: treatment effect in patients with premature ejaculation; format: in vivo, human; details: sertraline 50.0 mg, fluoxetine 20.0 mg, triple C 7.5 + S 11.3 + F 5.9 mg, 3 weeks; for Patient no. with ELT of 10 min or over: of 20 patients per group, daily dose clomipramine 22.4 mg, 3 hours before intercourse; for Treatment effect: share of 20 patients with ELT 10 min or more, clomipramine 22.4 mg
Protocol: (§1) Patients with premature ejaculation of 60 seconds or less were divided into 4 groups of twenty people. […] A dose was taken 3 hours before the sexual intercourse begins, and the administration period was for 3 weeks. The effect of the administration of the drugs to the patients examined through interviews with the patients. A drug was determined as effective when the patient's ejaculation latency time had been 10 minutes or more.

[3] = tested on: premature ejaculation patients; details: clomipramine 25 mg or 50 mg per day; sertraline 50 mg to 200 mg per day; fluoxetine 40 mg; cited from earlier work
[4] = tested on: sexually active male Crl:CD (SD) rats; assay: Pharmacological effect evaluation (rats): copulatory behavior test, ejaculation latency time; format: in vivo; details: single drugs and double-drug combinations, C 2.70, S 6.02, F 2.41 mg/kg; for Ejaculation latency time, mean ± S.E.M.: single oral, test 3 h after dosing; for Increasing rate of ELT: vs negative control
Protocol: According to the method of Brain Res Brain Res Protoc, 1997, (1):203-9, this experiment was executed by employing male and female Crl:CD (SD) rats above 20 weeks old as test animals.
The female rats were anesthetized by the intraperitoneal injection of combination of ketamine 75 mg/kg and xylazine 25 mg/kg. After performing laparotomy, the ovaries were removed and peritoneal wall was closed with sutures. 2 ml of 10% ampicillin was injected intraperitoneally and the female rats had recovery period of 7 days. Ovariectomied females were brought into artificial estrus by subcutaneous injection of 20 μg/rat of estradiol benzoate, dissolved in 0.2 ml of sesame oil, about 52 hours before the administration of a test compound, followed by s.c injection of 1 mg/rat of progestrerone, dissolved in 0.2 ml of sesame oil, about 4 hours before the administration of a test compound.
Screening test was performed in an observation cage (60×40×30 cm) with plexiglass front. Before screening test, the male rats were allowed to adapt to the observation cage for 10 minutes and then the female rats with artificial estrus were brought into the cage. If male rats had ejaculated within 30 minutes, they were regarded as sexually active ones. Selected male rats went through copulatory experience for 5 times at 3 days intervals.
The experienced males were divided into 15 groups of about 10 animals so that the mean ejaculation latency time (ELT) of groups are similar. Test compound was single orally administered.
Group 1 as a negative control was administered with 0.5% methylcellulose 1500 (Sigma Co., hereinafter as “MC 1500”). […] Groups 5˜7 were administered with double-drug combinations. Groups 8˜15 were administered with triple-drug combinations having various doses. Detailed doses are represented in Table 2 below.
After 2 hours and 50 minutes from the administration of test compounds, the male rats were allowed to adapt to the observation cage for 10 minutes. Then copulatory behavior test was initiated with the introduction of female rats with artificial estrus into the observation cage. The ejaculation latency time (ELT) as the time from the first intromission until the ejaculation was evaluated.

[5] = Side effect evaluation, clinical study (sedation); format: in vivo, human; details: clomipramine 22.4 mg, triple C 7.5 + S 11.3 + F 5.9 mg
Protocol: as §1, with “patients.” for “patients. A drug was determined as effective when the patient's ejaculation latency time had been 10 minutes or more.”
A side effect incidence rate of sedation was investigated among patients who took each drug in Example 4.

[6] = rat, in vivo, po
Protocol: Rats were supplemented with about 200 μl of heparinized saline (20 IU/ml) at each sampling times.
The maximum plasma concentration (Cmax) and the time to reach Cmax (Tmax) were obtained from the plasma concentration-time curve. The area under the plasma concentration-time curve (AUC) was calculated by using the trapezoidal rule.

[7] = Side effect evaluation, clinical study (nausea); format: in vivo, human; details: sertraline 50.0 mg, triple C 7.5 + S 11.3 + F 5.9 mg
Protocol: as §1, with “patients.” for “patients. A drug was determined as effective when the patient's ejaculation latency time had been 10 minutes or more.”
A side effect incidence rate of nausea was investigated among patients who took each drug in Example 4.

| Cmax and AUC after triple-drug combination compared with single drug administration (in words) [6] | Compound | Side effects (literature) [1] | Patient no. with ELT of 10 min or over [2] | Treatment effect [2] | Ejaculation delay effect (literature) [3] | Ejaculation latency time, mean ± S.E.M. [4] [s] | Increasing rate of ELT [4] [%] | Incidence rate of sedation ([5]; 20 patients) [%] | No. of sedation ([5]; of 20 patients) | Incidence rate of nausea ([7]; 20 patients) [%] | No. of nausea ([7]; of 20 patients) | Treatment effect ([2]; listed as sertraline) |
| --- | --- | --- | --- | --- | --- | --- | --- | --- | --- | --- | --- | --- |
|  | CN(C)CCCN1c2ccccc2CCc2ccc(Cl)cc21 [Clomipramine, clomipramine] | constipation, dry-mouth, nausea, drowsiness, headache and dizziness | 15 | 75% | ejaculation latency effect; also recorded: ejaculation was delayed | 177.2 ± 47.6 | −14.3 | 70 | 14 |  |  |  |
| increases in Cmax and AUC | CNCCC(Oc1ccc(C(F)(F)F)cc1)c1ccccc1 (centres unmarked) [Fluoxetine, fluoxetine] | drowsiness, dry-mouth, nausea, vomiting; also recorded: nausea, headache, and insomnia | 0 | the curative effect did not show up | the ejaculation delay effect was weak | 141.3 ± 51.2 | −31.7 |  |  |  |  |  |
| only AUC increased significantly | CN[C@H]1CC[C@@H](c2ccc(Cl)c(Cl)c2)c2ccccc21 [Sertraline, sertraline] | nausea, vomiting | 8 | 40% | the ejaculation was delayed |  |  |  |  | 90 | 18 | about 40% |

Reference: patent US8461146B2, “Pharmaceutical composition for the treatment of premature ejaculation” (priority 2008, dated 2013)
